Results taken from patent US12319699B2, “L-proline sulfonamide derivatives comprising pyrazolo[4,3-e]tetrazolo[4,5-b][1,2,4]triazine system, method of manufacturing thereof, uses thereof and pharmaceutical composition comprising the same” (UNIWERSYTET MEDYCZNY W BIALYMSTOKU, priority 2018, dated 2025).

How the values were obtained:
[1] = test system: AGS human gastric cancer cells; experiment: Cytotoxicity, MTT assay (Carmichael's method), cell survival; format: cell-based; settings: 24-hour incubation
Experimental: AGS human gastric cancer cells (ATCC CRL-1739, Manassas, VA, USA) were cultured in DMEM (Dulbecco's Modified Eagle's Medium) supplemented with 10% fetal bovine serum (FBS), 2 mM glutamine, 50 U/ml penicillin, 50 μg/ml streptomycin at 37° C., in atmosphere containing 5% CO2. Subsequently, the cells were counted in a hemocytometer and transferred in the amount of […] cells per well in 1 ml of culture medium from Costar flasks (Sigma, USA) to Nunc 6-well plates (Wiesbaden, Germany). The cells were transferred using calcium-free phosphate buffer with the addition of 0.05% trypsin and 0.02% EDTA. […] Within the subsequent 24 hours the cells covered at least 80% of the surface of each plate well. […]
Cytotoxicity of the examined compounds according to the invention was measured by Carmichael's method (Carmichael J et al, Cancer Res., 1987, 47:943-946) and cell viability was determined using the tetrazolium salt (MT) in MTT assay. […] In a cell lysate prepared in such manner absorbance at 630 nm was measured. The result of absorbance obtained in the control cell cultures was assumed to be 100%. The viability of cells incubated in the presence of the examined compounds was expressed as percentage of the control values. The significance level p was determined by the nonparametric Mann-Whitney U test by means of SigmaStat software. […]

[2] = test system: HT-29 colorectal cancer cells; experiment: Induction of apoptosis, Annexin V-FITC / propidium iodide flow cytometry; format: cell-based, human; settings: 24 hours
Experimental: HT-29 human colorectal cancer cells (ATCC HTB-38, Manassas, VA, USA) were cultured in McCoy's 5A medium supplemented with 10% fetal bovine serum (FBS), 2 mM glutamine, 50 U/ml penicillin, 50 μg/ml of streptomycin at 37° C., in atmosphere containing 5% CO2. Subsequently, the cells were counted in a hemocytometer and were transferred in the amount of 1×10^6 cells per well in 1 ml of culture medium from Costar flasks (Sigma, USA) to Nunc 6-well plates (Wiesbaden, Germany). The cells were transferred using calcium-free phosphate buffer with the addition of 0.05% trypsin and 0.02% EDTA. […] Within the subsequent 24 hours the cells covered at least 80% of the surface of each plate well. The cells prepared in this manner were incubated with the examined compounds for 24 hours and then used for further experiments.
Induction of apoptosis was examined by a method using fluorescein isothiocyanate-labelled Annexin V (Annexin V-FITC) which forms complexes with phosphatidylserine in the presence of calcium ions. The complexes were determined using FITC Annexin V Apoptosis Detection Kit II (BD Biosciences, USA) and a flow cytometer BD FACSCanto H (BD Biosciences Systems, San Jose, CA, USA). The analysis of results was carried out by means of FACSDiva software (BD Biosciences Systems, San Jose, CA USA).
DLD-1 and HT-29 cells were incubated for 24 hours in an incubator at 37° C. in a 5% CO2 atmosphere with medium containing the examined compounds according to the invention at specific concentrations. Both examined compounds were used at a concentration of 1.5 μM and 3.0 μM. After the incubation period, the medium was removed, a binding buffer included in the kit was added and the cells were suspended in the buffer. In order to calibrate the apparatus two control samples, i.e. a positive one and a negative one, were prepared. The positive control constituted a reference of control cells in which apoptosis was induced by the addition of 3% formaldehyde. Three control samples were prepared. The first sample contained control cells and propidium iodide, the second sample contained control cells and Annexin V-FITC and the third sample contained control cells, propidium iodide and Annexin V-FITC. After adding 2 μl of 3% formaldehyde the cells were placed in a refrigerator for 10 minutes. Cells that were not treated with any agent constituted the negative control. The cells from the control samples and the cells treated by the examined compounds according to the invention (1×10^6 cells/ml) suspended in the buffer included in the kit were subjected to further examination. 200 μl suspension were taken from each examined sample and were transferred to test tubes. 3 μl Annexin V-FITC and 5 μl propidium iodide (PI) were added to each sample in room temperature and the samples were placed in a dark place for 15 minutes. Cell suspension prepared in this manner was analyzed within one hour in the flow cytometer BD FACSCanto II (BD Biosciences Systems, San Jose, CA, USA) by means of FACSDiva software. The results of the above experiment can be described as follows: live cells (double negative sample—lack of reaction with Annexin V and P), early apoptosis (Annexin V positive and PI negative sample), late apoptosis (Annexin V positive and PI positive sample) and necrosis (Annexin V negative and PI positive sample)

[3] = HT-29, 1.5 μM, listed as compound of Formula 2

Compound | IC50 [1] | Early apoptosis ([2]; HT-29, 1.5 μM) | Late apoptosis ([2]; HT-29, 1.5 μM) | Live cells ([2]; HT-29, 1.5 μM) | Necrosis ([2]; HT-29, 1.5 μM) | Early apoptosis [2, 3] | Late apoptosis [2, 3] | Necrosis [2, 3] | Early apoptosis ([2]; HT-29, 3.0 μM) | Late apoptosis ([2]; HT-29, 3.0 μM) | Live cells ([2]; HT-29, 3.0 μM) | Necrosis ([2]; HT-29, 3.0 μM) | apoptotic cells (total) ([2]; HT-29, 3.0 μM) | Necrosis ([2]; HT-29, 3.0 μM, listed as compound of Formula 2) | early and late apoptotic cells (total) ([2]; HT-29, 1.5 μM) | Necrosis ([2]; HT-29, 1.5 μM, listed as compound of Formula 3)
COC(=O)C1CCCN1S(=O)(=O)c1ccc(-n2nc(C)c3nc4nnnn4nc32)cc1 (stereo not drawn) [Compound of Formula 2, Methyl 1-[4-(7-methyl-5H-pyrazol[4,3-e]tetrazolo[4,5-b][1,2,4]triazyn-5-yl)phenylsulfonyl]pyrrolidine-2-carboxylate] | 920 ± 10 nM | 9.0% | 4.7% | 85.3% | 1.0% | 9.0% | 4.7% | 1.0% | 9.6% | 9.4% | 78.3% | 2.7% | 19.0% | 2.7% | – | –
COC(=O)C1CC(O)CN1S(=O)(=O)c1ccc(-n2nc(C)c3nc4nnnn4nc32)cc1 (stereo not drawn) [Compound of Formula 3, Methyl 4-hydroxy-1-[4-(7-methyl-5H-pyrazolo[4,3-e]tetrazolo[4,5-b][1,2,4]triazyn-5-yl)phenylsulfonyl]pyrrolidine-2-carboxylate] | 800 ± 10 nM | 14.5% | 16.0% | 65.0% | 4.5% | – | – | – | 25.2% | 13.7% | – | 2.6% | – | – | 30.5% | 4.5%
